PubChem BioAssay AID248 (DTP/NCI, 2004)
“And” between values parts separate entries of the source, which are not always exact repeats. Identical values can stand only once. Inconclusive results and toxic doses are left out. Cut-off read from the data, not from the text of the source: active = T/C of 150% or more; inactive = T/C below 125%.

Tested on: L1210 leukemia ip in BDF1 mice, survival T/C
Test: NCI In Vivo Anticancer Drug Screen. Data for tumor model L1210 Leukemia (intraperitoneal) in B6D2F1 (BDF1) mice
Conditions: endpoint: mean survival time, higher = longer survival
In short: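 Transplanted-tumor mice were given test agent; controls received vehicle only. Survival readings from the two groups were divided (treated over control).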

[1] = dose: 100.0 mg/kg/injection, schedule: Q04DX003 (ip), vehicle: Klucel (hydroxypropylcellulose) (HPC)
[2] = dose: 200.0 mg/kg/injection, schedule: Q04DX003 (ip), vehicle: Klucel (hydroxypropylcellulose) (HPC)
[3] = dose: 400.0 mg/kg/injection, schedule: Q04DX003 (ip), vehicle: Klucel (hydroxypropylcellulose) (HPC)
[4] = dose: 50.0 mg/kg/injection, schedule: Q01DX001 (ip), vehicle: carboxymethylcellulose (CMC)
[5] = dose: 100.0 mg/kg/injection, schedule: Q01DX001 (ip), vehicle: carboxymethylcellulose (CMC)
[6] = dose: 200.0 mg/kg/injection, schedule: Q01DX001 (ip), vehicle: carboxymethylcellulose (CMC)
[7] = dose: 400.0 mg/kg/injection, schedule: Q01DX001 (ip), vehicle: carboxymethylcellulose (CMC)
[8] = dose: 100.0 mg/kg/injection, schedule: Q01DX009 (ip), vehicle: saline with Tween-80
[9] = dose: 100.0 mg/kg/injection, schedule: Q04DX003 (ip), vehicle: saline with Tween-80
[10] = dose: 200.0 mg/kg/injection, schedule: Q01DX009 (ip), vehicle: saline with Tween-80
[11] = dose: 200.0 mg/kg/injection, schedule: Q04DX003 (ip), vehicle: saline with Tween-80
[12] = dose: 400.0 mg/kg/injection, schedule: Q01DX009 (ip), vehicle: saline with Tween-80
[13] = dose: 400.0 mg/kg/injection, schedule: Q04DX003 (ip), vehicle: saline with Tween-80
[14] = dose: 25.0 mg/kg/injection, schedule: Q04DX003 (ip), vehicle: Klucel (hydroxypropylcellulose) (HPC)
[15] = dose: 50.0 mg/kg/injection, schedule: Q04DX003 (ip), vehicle: Klucel (hydroxypropylcellulose) (HPC)

Measured: T/C

CCCCCCCN(CCCCCCC)C(=O)N(C)C
inactive: dose: 100.0 mg/kg/injection, schedule: Q04DX002 (sc), vehicle: olive oil, sesame oil, peanut oil 104 % of control | dose: 200.0 mg/kg/injection, schedule: Q04DX002 (sc), vehicle: olive oil, sesame oil, peanut oil 107 % of control | dose: 400.0 mg/kg/injection, schedule: Q04DX002 (sc), vehicle: olive oil, sesame oil, peanut oil 114 % of control

N#C/C(C(N)=O)=C1\CCCc2sccc21
inactive: dose: 100.0 mg/kg/injection, schedule: Q01DX001 (ip), vehicle: saline 102 % of control | dose: 200.0 mg/kg/injection, schedule: Q01DX001 (ip), vehicle: saline 95 % of control

CC(CC(=O)O)c1ccc(C(C)(C)C)cc1 (stereo not drawn)
inactive: [1] 95 % of control | [2] 107 % of control | [3] 98 % of control

NC(CO)C(O)c1ccc([N+](=O)[O-])cc1 (stereo not drawn)
inactive: dose: 100.0 mg/kg/injection, schedule: Q01DX009 (ip), vehicle: Klucel (hydroxypropylcellulose) (HPC) 101 % of control | [1] 91 % of control | dose: 200.0 mg/kg/injection, schedule: Q01DX009 (ip), vehicle: Klucel (hydroxypropylcellulose) (HPC) 101 % of control | [2] 100 % of control | dose: 400.0 mg/kg/injection, schedule: Q01DX009 (ip), vehicle: Klucel (hydroxypropylcellulose) (HPC) 101 % of control | [3] 98 % of control

C=CCc1ccc(OCCOCCNC2CC3CCC2(C)C3(C)C)c(OC)c1 (stereo not drawn)
inactive: [1] 89 % of control

OC1(C#CC2(O)CCCC2)CCCC1
inactive: [4] 98 % of control | [5] 95 % of control | [6] 87 % of control | [7] 93 % of control

COc1ccc(COC(=O)Oc2ccc(OC)cc2)cc1
inactive: [1] 102 % of control | [2] 98 % of control | [3] 112 % of control

[Cu+2].[Cu+2].[O-]CCCN=Cc1ccccc1[O-].[O-]CCCN=Cc1ccccc1[O-]
inactive: dose: 75.0 mg/kg/injection, schedule: Q01DX001 (ip), vehicle: other 97 % of control | dose: 150.0 mg/kg/injection, schedule: Q01DX001 (ip), vehicle: other 111 % of control | dose: 300.0 mg/kg/injection, schedule: Q01DX001 (ip), vehicle: other 102 % of control

COC1=CC(C)(C)c2ccccc2C1=O
inactive: dose: 50.0 mg/kg/injection, schedule: Q01DX009 (ip), vehicle: saline sonified 97 % of control | dose: 100.0 mg/kg/injection, schedule: Q01DX009 (ip), vehicle: saline sonified 99 % of control | [1] 97 % of control | dose: 200.0 mg/kg/injection, schedule: Q01DX009 (ip), vehicle: saline sonified 97 % of control | [2] 115 % of control | [3] 97 % of control

O=C1CCS(=O)O1 (stereo not drawn)
inactive: dose: 100.0 mg/kg/injection, schedule: Q04DX002 (ip), vehicle: Klucel (hydroxypropylcellulose) (HPC) 100 % of control | dose: 200.0 mg/kg/injection, schedule: Q04DX002 (ip), vehicle: Klucel (hydroxypropylcellulose) (HPC) 95 % of control | dose: 400.0 mg/kg/injection, schedule: Q04DX002 (ip), vehicle: Klucel (hydroxypropylcellulose) (HPC) 89 % of control

CN(c1ccccc1)S(=O)(=O)c1ccccc1
inactive: [8] 100 % of control | [9] 97 % of control | [10] 106 % of control | [11] 97 % of control | [12] 90 % of control | [13] 92 % of control

O=C(NC(=S)Nc1ccccc1)c1cccc(Cl)c1
inactive: dose: 75.0 mg/kg/injection, schedule: Q01DX001 (ip), vehicle: carboxymethylcellulose (CMC) 95 % of control | dose: 150.0 mg/kg/injection, schedule: Q01DX001 (ip), vehicle: carboxymethylcellulose (CMC) 96 % of control

Cc1c([N+](=O)[O-])cc(C(C)(C)C)c(OC(=O)Nc2ccccc2)c1[N+](=O)[O-]
inactive: dose: 12.5 mg/kg/injection, schedule: Q04DX003 (ip), vehicle: Klucel (hydroxypropylcellulose) (HPC) 93 % of control | [14] 106 % of control | [15] 95 % of control

O=C(O)CCCCc1ccccc1
inactive: [8] 96 % of control | [9] 100 % of control | [10] 100 % of control | [11] 91 % of control | [12] 92 % of control | [13] 94 % of control

C[Si](C)(CCl)CCCO[Si](C)(C)CCl
inactive: [4] 102 % of control | [5] 108 % of control | [6] 96 % of control | [7] 98 % of control

O=c1[nH]nc(S(=O)(=O)N2CCCC2)c(=O)[nH]1
inactive: [5] 98 % of control | [6] 98 % of control | [7] 93 % of control

CC(=O)c1cccc(OC(=O)Nc2ccc(C)cc2)c1
inactive: dose: 100.0 mg/kg/injection, schedule: Q01DX001 (ip), vehicle: gum acacia 89 % of control | dose: 100.0 mg/kg/injection, schedule: Q01DX009 (ip), vehicle: gum acacia 95 % of control and 88 % of control | dose: 100.0 mg/kg/injection, schedule: Q04DX003 (ip), vehicle: gum acacia 98 % of control and 100 % of control | dose: 200.0 mg/kg/injection, schedule: Q01DX001 (ip), vehicle: gum acacia 100 % of control | dose: 200.0 mg/kg/injection, schedule: Q01DX009 (ip), vehicle: gum acacia 98 % of control and 105 % of control | dose: 200.0 mg/kg/injection, schedule: Q04DX003 (ip), vehicle: gum acacia 93 % of control and 90 % of control | dose: 400.0 mg/kg/injection, schedule: Q01DX001 (ip), vehicle: gum acacia 90 % of control | dose: 400.0 mg/kg/injection, schedule: Q01DX009 (ip), vehicle: gum acacia 98 % of control and 109 % of control | dose: 400.0 mg/kg/injection, schedule: Q04DX003 (ip), vehicle: gum acacia 97 % of control and 103 % of control

O=[N+]([O-])c1ccc(N=Nc2ccc3c(c2)-c2ccccc2C3=P(c2ccccc2)(c2ccccc2)c2ccccc2)cc1
inactive: [5] 108 % of control | [6] 98 % of control | [7] 93 % of control

C1=Cc2ccccc2C(c2ccccc2)S1 (stereo not drawn)
inactive: dose: 100.0 mg/kg/injection, schedule: Q04DX002 (ip), vehicle: saline 103 % of control | dose: 200.0 mg/kg/injection, schedule: Q04DX002 (ip), vehicle: saline 98 % of control | dose: 400.0 mg/kg/injection, schedule: Q04DX002 (ip), vehicle: saline 103 % of control

Cc1ccc(NC(=S)Nc2ccc(Cc3ccc(NC(=S)Nc4ccc(C)cc4)cc3)cc2)cc1
inactive: dose: 100.0 mg/kg/injection, schedule: Q04DX002 (ip), vehicle: saline with Tween-80 98 % of control | dose: 200.0 mg/kg/injection, schedule: Q04DX002 (ip), vehicle: saline with Tween-80 103 % of control | dose: 400.0 mg/kg/injection, schedule: Q04DX002 (ip), vehicle: saline with Tween-80 88 % of control

CC(C)NC(C)Cc1ccccc1 (stereo not drawn)
inactive: dose: 25.0 mg/kg/injection, schedule: Q01DX001 (ip), vehicle: saline 93 % of control | dose: 50.0 mg/kg/injection, schedule: Q01DX001 (ip), vehicle: saline 91 % of control

CN(C(=O)CCl)c1ccccc1
inactive: dose: 12.5 mg/kg/injection, schedule: Q01DX009 (ip), vehicle: Klucel (hydroxypropylcellulose) (HPC) 92 % of control | dose: 25.0 mg/kg/injection, schedule: Q01DX009 (ip), vehicle: Klucel (hydroxypropylcellulose) (HPC) 98 % of control | [14] 104 % of control | dose: 50.0 mg/kg/injection, schedule: Q01DX009 (ip), vehicle: Klucel (hydroxypropylcellulose) (HPC) 93 % of control | [15] 98 % of control | [1] 88 % of control

Fc1cc(F)c(CCl)c(F)c1
inactive: dose: 100.0 mg/kg/injection, schedule: Q01DX009 (ip), vehicle: acetone 94 % of control

Cc1ccc(S(=O)(=O)N2CCCCC2)cc1
inactive: dose: 100.0 mg/kg/injection, schedule: Q04DX003 (ip), vehicle: saline 91 % of control | dose: 200.0 mg/kg/injection, schedule: Q04DX003 (ip), vehicle: saline 96 % of control | dose: 400.0 mg/kg/injection, schedule: Q04DX003 (ip), vehicle: saline 97 % of control
